Data: patent US6605305B2, “Plant drug for treatment of liver disease” (priority 2001, dated 2003)
Marks after values point to notes of the source that are not given here.

Assays:
[1] = tested on: mitochondrion oxygen consumption; experiment: Mitochondrion oxygen consumption (respiratory control ratio) with TET; format: biochemical; settings: TET 5 μl/L + SCS (100 μmol/L)
Protocol: In present study, the effect of SCS on ATP and oxygen consumption was examined. The experiments of animal and livers were performed as previously described.

Lipoperoxides = experiment: Liver lipoperoxides (MDA) after CCl4; format: in vivo, mice
Protocol: Female Balb/c mice (22-24 g) were maintained at 20° C. and a 12 hours light/dark cycle. The food and water allowed adliboti. Mice were randomly assigned to groups of 20 individuals. Twenty-four hours after the last dosing, animals were administered an oral dose of CCl4 (1%, v/v, in olive oil) at 1.0 mmol/kg. In treatment group, mice were treated intragastrically with SCS at daily dose of 50 mg/kg for 4 days. Control animals were given the vehicle (i.e. olive oil, 1 mL/kg). […]
The experiments were performed as previously described.
In the present study, the effect of SCS on lipoperoxides was examined.

c-myb RNA = experiment: Inhibition of oncogene expression in ML-1 cells (northern blot), c-myb; format: cell-based, Human
Protocol: Human myeloblastic leukemic cells (ML-1) were maintained in suspension culture in RPMI 1640 medium supplemented with 7.5% heat-inactivated FBS. Cells growth and viability were assayed by hemocytometer using trypan-blue dye exclusion.
RNA was isolated by the CsCl gradient modification. RNA pellets were washed twice by reprecipitation in ethanol and quantitated by absorbency at […]. RNA analyzed by electrophoresis of 15 μg of RNA through 1.2% agarose formaldehyde gels followed by northern blot transfer to nitrocellulose.
Single-standard uniformly labeled DNA probes were prepared. Probe of c-myc was a 1.7 Kb cla-Eco RI restriction fragment containing the 3′exon region of human c-myc and probe of c-myb was 1.0 Kb myb-specific Bam HI fragment. Probes for n-ras contained DNA fragments using a modification of the PCR technique. Probes for myb, myc and n-ras were isolated. The isolated fragments were labeled to high specific activity with [α^32P]-dCTP (3000 ci/mmol).
Prehybridization of the filter was performed. The hybridization mixer contained 50,000 cpm of probe. The probes were hybridized at 58° C. in 15 mM NaCl, […] sodium citrate for 3 hours. After hybridization, they were exposed to XAR-5 film. Oncogene expression was quantitated by densitometer scanning of the autoradiography.

[2] = tested on: Aflatoxin B1 induced liver cancer; set-up: species or system rats; settings: rat, in vivo
[3] = tested on: ethanol-induced gastric mucosal damage; experiment: Ethanol-induced gastric mucosal damage; format: in vivo, rats
Protocol: The experiment of animal was performed as previously described. Mucosal damage in gastrointestinal tract was induced ethanol or indomethacin administration. In ethanol-treated animals, after 24 hours of fasting, ethanol was given orally (70%, v/v, 10 ml/kg) by means of an oral gastric. Mucosal damage was assessed by measurement of areas with hemorrhagic lesion. In the indomethacin ulcer model, rats were refed for 1 hour after 24 hours of fasting. Thirty minutes later, indomethacin (15 mg/kg) was administered subcutaneously and rats were killed 24 hours later. Mucosal lesions were again measured along the greatest diameter. […] SCS administration was repeated again 6 hours after indomethacin injection.

Glutathione (GSH) = experiment: Hepatic mitochondrial GSH level in CCl4-treated mice; format: in vivo; settings: CCl4 + SCS
Protocol: (§1) Female Balb/c mice (22-24 g) were maintained at 20° C. and a 12 hours light/dark cycle. The food and water allowed adliboti. Mice were randomly assigned to groups of 20 individuals. Twenty-four hours after the last dosing, animals were administered an oral dose of CCl4 (1%, v/v, in olive oil) at 1.0 mmol/kg. In treatment group, mice were treated intragastrically with SCS at daily dose of 50 mg/kg for 4 days. Control animals were given the vehicle (i.e. olive oil, 1 mL/kg). Twenty-four hours after intoxication, heparinized blood samples were drawn from ether-anesthetized mice by cardiac puncture, and the animals were killed by cardiac excision thereafter.
(§2) The rats were starved overnight before decapitation. The livers were perfused in situ with ice-cold 1.15% KCl solution. Tissue homogenate was prepared by homogenizing 1 g of hepatic tissue sample in 10 mL ice-cold homogenizing buffer with two 10-secbursts of atissue disintegrator at 135,000 rpm. Hepatic mitochondrial fraction was prepared by differential centrifugation in isotonic buffer ([…], 0.1 mM EDTA, 5 mM Tris, pH 7.4).
(§3) The experiments of animal and livers were performed as previously described. Glutathione (GSH) level was determined by an HPLC method. In the present study, the effect of SCS on GHS and GRD were examined.

mice = experiment: Acute toxicity in mice; format: in vivo
Excerpt: a. Route of Administration: intravenous and intraperiotoneal injection
b. Route of administration: the oral route

[4] = tested on: Serum alamine aminotransferase (ALT); experiment: Serum ALT activity in CCl4-intoxicated mice; format: in vivo
Protocol: as §1
Animal section described as previously. Plasma was obtained by centrifugation. The whole blood at 2000×g at 4° C. Serum alamine aminotransferase (ALT) activity was determined by assay kit from Sigma Chemical Co.

GRD = experiment: Hepatic GRD activity in CCl4-treated mice; format: in vivo
Protocol: as §1, §2, §3

3924A = experiment: DNA synthesis of cancer cells ([^3H]TdR incorporation), 3924A; format: in vivo, rats
Protocol: (§4) The method of animal and liver was described previously. Ascitric hepatoma, S180-ν, the transplantable 3924 used. After treatment with SCS (100 mg/kg), rats were injected with [^3H]-TdR (10 μc/μmole). Two hours after injection the animals were decapitated and examined. Livers and tumors were rapidly removed and blotted on filter paper. Tumors were carefully dissected free of necrotic, hemorrhagic, and nontumorous material. Tissues were minced with sharp scissors and 2 gm. DNA was prepared from the tissues. The radioactivity of the DNA was determined by liquid scintillation counting.
(§5) The incorporation of thymidine into DNA ws expressed as cpm/mg of DNA or cpm/gm of tissue.

S-180 = experiment: DNA synthesis of cancer cells ([^3H]TdR incorporation), S-180; format: in vivo, rats
Protocol: as §4, §5

complement = experiment: Effect of SCS on complement; format: in vivo, mice

COc1cc2c(c(OC)c1OC)-c1c(cc(OC)c(OC)c1OC)C[C@](C)(O)[C@@H](C)C2 [SCS, Schisandrin]
RCR (respiratory control ratio) [1]: 12.5 ± 1.10
Lipoperoxides (mmol MDA/g liver protein) (Lipoperoxides; 1 h): 0.70 ± 0.07 mmol MDA/g liver protein
Lipoperoxides T/C (Lipoperoxides; 1 h): 87%
Lipoperoxides (mmol MDA/g liver protein) (Lipoperoxides; 3 h): 0.65 ± 0.069 mmol MDA/g liver protein
Lipoperoxides T/C (Lipoperoxides; 3 h): 72%
Lipoperoxides (mmol MDA/g liver protein) (Lipoperoxides; 6 h): 0.60 ± 0.70 mmol MDA/g liver protein
Lipoperoxides T/C (Lipoperoxides; 6 h): 55%
Lipoperoxides (mmol MDA/g liver protein) (Lipoperoxides; 12 h): 0.52 ± 0.60 mmol MDA/g liver protein
Lipoperoxides T/C (Lipoperoxides; 12 h): 40%
Lipoperoxides (mmol MDA/g liver protein) (Lipoperoxides; 24 h): 0.50 ± 0.58 mmol MDA/g liver protein
Lipoperoxides T/C (Lipoperoxides; 24 h): 22%
Inhibition (%) c-myb RNA (c-myb RNA; SCS concentration 10 ng/ml): 65.0 ± 5.7%
Inhibition (%) c-myb RNA (c-myb RNA; SCS concentration 50 ng/ml): 67.7 ± 6.8%
% of iron-excluding area in liver section [2]: 2.2 ± 0.2 %
Inhibition % [2]: 87.8%
Lesion area (mm^2) gastric antrum ([3]; SCS 10 mg/kg): 2.5 ± 0.35* mm^2
Lesion area (mm^2) gastric antrum ([3]; SCS 25 mg/kg): 2.0 ± 0.23** mm^2
Lesion area (mm^2) gastric antrum ([3]; SCS 50 mg/kg): 1.7 ± 0.20** mm^2
GSH (Glutathione (GSH)): 21.8 ± 2.0 nmol/mg protein
LD50 (mice; intragastric administration): 5200 mg/kg
LD50 (mice; intraperitoneal injection): 1250 mg/kg
LD50 intravenous versus dose used in clinical trials for human being (mice; intravenous): > 100 times
LD50 (mice; intravenous injection): 720 mg/kg
ALT (X ± S) ([4]; CCl4 + SCS, serum, mice, SCS 50 mg/kg intragastrically daily for 4 days): 68.8 ± 7.0 U L^−1
CCl4 toxicity decreased by SCS (ALT) ([4]; CCl4 mice, versus control): 87.9%
GRD (GRD; CCl4 + SCS): 50.6 ± 6.0 mU/mg protein
GRD activity T/C (GRD; treatment versus CCl4 control): 347%
GRD activity T/N (GRD; treatment versus normal group): 145%
Tissue inhibition rate (%) (3924A; 3924A t versus C): 52.6%
[^3H]TdR into DNA × 10^−3 cm/mg (3924A; 3924A t, SCS 100 mg/kg): 38.7 ± 4.8 × 10^−3 cm/mg
Tissue inhibition rate (%) (S-180; S-180 T versus C): 43.2%
[^3H]TdR into DNA × 10^−3 cm/mg (S-180; S-180 T, SCS 100 mg/kg): 39.8 ± 5.2 × 10^−3 cm/mg
C.P.M. (complement; treatment group): 480 ± 51
CPM of T/C (complement; treatment versus control): 194.3%
